Assay results as given in BigSolDB 2.1.

Cl.N=C(N=C(N)N)N1CCOCC1
solubility (mole fraction)
Conditions | 283.15 K | 293.15 K | 303.15 K | 313.15 K | 323.15 K
in acetone | 1.9e-05 | 3.3e-05 | 6.2e-05 | 0.000107 | 0.000186
in acetonitrile | 9.1e-05 | 0.000106 | 0.000117 | 0.000128 | 0.000149
in ethanol | 0.0023 | 0.00283 | 0.00356 | 0.00461 | 0.00615
in ethyl acetate | 7.7e-05 | 9.7e-05 | 0.000117 | 0.000138 | 0.000161
in isobutanol | 0.000621 | 0.000696 | 0.000915 | 0.00124 | 0.00157
in isopropanol | 0.000482 | 0.00062 | 0.00079 | 0.001 | 0.00124
in methanol | 0.013 | 0.0215 | 0.0268 | 0.0341 | 0.0423
in n-butanol | 0.000682 | 0.000834 | 0.00101 | 0.00137 | 0.00184
in n-pentanol | 0.00045 | 0.000545 | 0.00061 | 0.000729 | 0.000967
in n-propanol | 0.0011 | 0.00136 | 0.00161 | 0.00206 | 0.00279
in sec-butanol | 0.000297 | 0.000358 | 0.000445 | 0.000534 | 0.000732
in water | 0.0565 | 0.0653 | 0.0853 | 0.105 | 0.127
